Laboratory results published in patent US20240140957A1, “BRIDGED COMPOUNDS AS KRAS G12D INHIBITOR AND DEGRADER AND THE USE THEREOF” (BeiGene Switzerland GmbH, priority 2021, published 2024).
Read-outs that look alike come from different tables or passages of the source.

Key:
KRAS G12D:SOS1 = KRAS G12D:SOS1 (Homo sapiens, UniProt P01116, G12D); assay: KRAS G12D:SOS1 GDP TR-FRET assay; assay type: binding; settings: GST-KRAS G12D 37.5 nM, GDP 10 μM, His-SOS1 18 nM
WT KRAS:SOS1 = WT KRAS:SOS1 (Homo sapiens, UniProt P01116); assay: KRAS WT:SOS1 GDP TR-FRET assay; assay type: binding; settings: GST-WT KRAS 37.5 nM, GDP 10 μM, His-SOS1 18 nM
GDP-loaded KRAS G12D = GDP-loaded KRAS G12D (Homo sapiens, UniProt P01116, G12D); assay: KRAS G12D Probe Displacement Assay; assay type: binding
GDP-loaded WT KRAS = GDP-loaded WT KRAS (Homo sapiens, UniProt P01116); assay: KRAS WT Probe Displacement Assay; assay type: binding
[1] = tested on: pERK1/2 (THR202/TYR204) in AsPC-1 cells; assay: pERK Assay (HTRF) in AsPC-1 cells; assay type: cell-based; settings: Homo sapiens, ASPC1, 2 h compound treatment
[2] = molecular target: T1, KRAS G12D protein in AsPC-1 cells (Homo sapiens, UniProt P01116, G12D); assay: Western Blotting Assay in AsPC-1 cells; assay type: cell-based; settings: 48 h compound treatment, concentration 3 uM
T1 construct: endogenous in cells; host or cells: AsPC-1
Experimental: AsPC-1 cell line was used in this study. […] 400000 AsPC-1 cells per well in 1 mL culture medium were seed in the 12-well plate for 4 hours. Cells were treated with an appropriate dilution series of compounds. After 48 h compound treatment, medium was aspirated, the cells were washed with PBS, and then 30 μL of 1× protein lysis buffer (Cell Signaling Technology) containing protease inhibitors (Merck) and phosphatase inhibitors (Sigma) was added. The cells were lysed, and after centrifugation, the supernatants were quantified by BCA Protein assay Kit (Thermo Fisher). 4× loading Buffer (Thermo Fisher) was added to equal amounts of total protein from each sample and heated at 95° C. for 5 minutes. […] of cell lysates were loaded onto a 12% NuPAGE Bis-Tris Gel (Thermo Fisher), electro-transferred to NC membranes (Thermo Fisher), The membranes were blocked at least 1 hour with Blocking reagent (LI-COR), and then incubated overnight with anti-KRAS (LSBio, LS-C175665) or pERK (Cell Signaling Technology, 4370L) antibodies and as loading control anti-β-actin (Cell Signaling Technology, 3700S) or anti-GAPDH (Cell Signaling Technology, 97166S) at 4° C. with gentle shaking. The membranes were washed three times with TBST, and incubated at least 1 hour at room temperature with anti-mouse or anti-Rabbit secondary fluorescent antibody (Thermo Fisher, A32729; LI-COR, 926-32213). […]

[3] = KRAS G12D 0.5 nM, biotinylated probe 2 4 nM, read-out: KRAS G12D Probe Displacement Assay IC50
[4] = WT KRAS 3 nM, biotinylated probe 1 60 nM, read-out: KRAS WT Probe Displacement Assay IC50

SMILES | IC50 (KRAS G12D:SOS1) [nM] | IC50 (WT KRAS:SOS1) [nM] | IC50 (GDP-loaded KRAS G12D; [3]) [nM] | IC50 (GDP-loaded WT KRAS; [4]) [nM] | IC50 [1] [nM] | KRAS G12D protein level decrease [2] [%] | IC50 (GDP-loaded KRAS G12D) [nM] | IC50 (GDP-loaded WT KRAS) [nM]
Cc1cc(N)nc(-c2c(Cl)cc3c(N4CC5CCC(C4)N5)nc(O[C@@H](C)CN4CCCCC4)nc3c2F)c1C(F)(F)F [Example E35, 6-(4-(3,8-diazabicyclo[3.2.1]octan-3-yl)-6-chloro-8-fluoro-2-(((S)-1-(piperidin-1-yl)propan-2-yl)oxy)quinazolin-7-yl)-4-methyl-5-(trifluoromethyl)pyridin-2-amine] | 22 | 3300 | 130 | 7300 | 4350 | – | – | –
CN1C[C@H](F)C[C@H]1COc1nc(N2C3CCC2CNC3)c2cc(Cl)c(-c3ccc(F)c4sc(N)nc34)c(F)c2n1 [Example E36, 4-(4-(3,8-diazabicyclo[3.2.1]octan-8-yl)-6-chloro-8-fluoro-2-(((2S,4R)-4-fluoro-1-methylpyrrolidin-2-yl)methoxy)quinazolin-7-yl)-7-fluorobenzo[d]thiazol-2-amine] | 10 | 242 | 3.7 | 120 | 715 | – | – | –
Cc1cc(N)nc(-c2c(Cl)cc3c(N4CC5CCC(C4)N5)nc(OC[C@@H]4C[C@@H](F)CN4C)nc3c2F)c1C(F)(F)F [Example E37, 6-(4-(3,8-diazabicyclo[3.2.1]octan-3-yl)-6-chloro-8-fluoro-2-(((2S,4R)-4-fluoro-1-methylpyrrolidin-2-yl)methoxy)quinazolin-7-yl)-4-methyl-5-(trifluoromethyl)pyridin-2-amine] | 13 | 692 | 16 | 700 | 807 | – | – | –
CC1CCCC(C)N1C[C@H](C)Oc1nc(N2CC3CCC(C2)N3)c2cc(Cl)c(-c3ccc(F)c4sc(N)nc34)c(F)c2n1 (some centres unmarked) [Example E38] | 12 | 804 | 32 | 1400 | 1310 | – | – | –
CN(C)C(=O)CCOc1nc(N2CC3CCC(C2)N3)c2cc(Cl)c(-c3ccc(F)c4sc(N)nc34)c(F)c2n1 [Example E40, 3-((7-(2-amino-7-fluorobenzo[d]thiazol-4-yl)-4-(3,8-diazabicyclo[3.2.1]octan-3-yl)-6-chloro-8-fluoroquinazolin-2-yl)oxy)-N,N-dimethylpropanamide] | 24 | 2210 | 41 | 1400 | > 10000 | – | – | –
C[C@@H](CN1CCOCC1)Oc1nc(N2C3CCC2CNC3)c2cc(Cl)c(-c3ccc(F)c4sc(N)nc34)c(F)c2n1 [Example E41, 4-(4-(3,8-diazabicyclo[3.2.1]octan-8-yl)-6-chloro-8-fluoro-2-(((S)-1-morpholinopropan-2-yl)oxy)quinazolin-7-yl)-7-fluorobenzo[d]thiazol-2-amine] | 11 | 438 | 11 | 230 | 1480 | – | – | –
C[C@@H](CN1CCC(F)C1)Oc1nc(N2C3CCC2CNC3)c2cc(Cl)c(-c3ccc(F)c4sc(N)nc34)c(F)c2n1 (stereo partly drawn) [Example E43, 4-(4-(3,8-diazabicyclo[3.2.1]octan-8-yl)-6-chloro-8-fluoro-2-(((2S)-1-(3-fluoropyrrolidin-1-yl)propan-2-yl)oxy)quinazolin-7-yl)-7-fluorobenzo[d]thiazol-2-amine] | 17 | 488 | 8.4 | 320 | 2550 | – | – | –
Cc1ncsc1-c1ccc([C@H](C)NC(=O)[C@@H]2C[C@@H](O)CN2C(=O)[C@@H](NC(=O)COC2CCN(CC(C)Oc3nc(N4CC5CCC(C4)N5)c4cc(Cl)c(-c5ccc(F)c6sc(N)nc56)c(F)c4n3)CC2)C(C)(C)C)cc1 (stereo partly drawn) [Example E44, (2S,4R)-1-((2S)-2-(2-((1-(2-((7-(2-amino-7-fluorobenzo[d]thiazol-4-yl)-4-(3,8-diazabicyclo[3.2.1]octan-3-yl)-6-chloro-8-fluoroquinazolin-2-yl)oxy)propyl)piperidin-4-yl)oxy)acetamido)-3,3-dimethylbutanoyl)-4-hydroxy-N—((S)-1-(4-(4-methylthiazol-5-yl)phenyl)ethyl)pyrrolidine-2-carboxamide] | – | – | – | – | – | 70 | – | –
Cc1cc(N)nc(-c2c(Cl)cc3c(N4CC5CCC(C4)N5)nc(OC[C@@]45CCCN4C[C@H](F)C5)nc3c2F)c1C(F)(F)F [Example E49, 6-(4-(3,8-diazabicyclo[3.2.1]octan-3-yl)-6-chloro-8-fluoro-2-(((2R,7aS)-2-fluorotetrahydro-1H-pyrrolizin-7a(5H)-yl)methoxy)quinazolin-7-yl)-4-methyl-5-(trifluoromethyl)pyridin-2-amine] | 4.8 | 35 | – | – | 84 | – | 3.1 | 49
Cc1cc(N)nc(-c2c(Cl)cc3c(N4CC5CCC(C4)N5)nc(OCC45CCCN4CC(F)C5)nc3c2F)c1C(F)(F)F (centres unmarked) [Example E50, 6-(4-(3,8-diazabicyclo[3.2.1]octan-3-yl)-6-chloro-8-fluoro-2-((2-fluorotetrahydro-1H-pyrrolizin-7a(5H)-yl)methoxy)quinazolin-7-yl)-4-methyl-5-(trifluoromethyl)pyridin-2-amine] | 7.6 | 140 | – | – | 312 | – | 4 | 160
CN1C[C@H](F)C[C@H]1COc1nc(N2CC3CCC(C2)N3)c2cc(C(F)(F)F)c(-c3ccc(F)c4sc(N)nc34)c(F)c2n1 [Example E51, 4-(4-(3,8-diazabicyclo[3.2.1]octan-3-yl)-8-fluoro-2-(((2S,4R)-4-fluoro-1-methylpyrrolidin-2-yl)methoxy)-6-(trifluoromethyl)quinazolin-7-yl)-7-fluorobenzo[d]thiazol-2-amine] | 6.5 | 61 | 1.1 | 33 | 202 | – | – | –
CN1C[C@H](F)C[C@H]1COc1nc(N2CC3CCC(C2)N3)c2cc(Cl)c(-c3ccc(F)c4sc(N)nc34)c(Cl)c2n1 [Example E53, 4-(4-(3,8-diazabicyclo[3.2.1]octan-3-yl)-6,8-dichloro-2-(((2S,4R)-4-fluoro-1-methylpyrrolidin-2-yl)methoxy)quinazolin-7-yl)-7-fluorobenzo[d]thiazol-2-amine] | 5.1 | 132 | 1.2 | 47 | 380 | – | – | –
Nc1nc2c(-c3c(C(F)(F)F)cc4c(N5CC6CCC(C5)N6)nc(OC[C@@]56CCCN5C[C@H](F)C6)nc4c3F)cc(F)c(F)c2s1 [Example E85, 4-(4-(3,8-diazabicyclo[3.2.1]octan-3-yl)-8-fluoro-2-(((2R,7aS)-2-fluorotetrahydro-1H-pyrrolizin-7a(5H)-yl)methoxy)-6-(trifluoromethyl)quinazolin-7-yl)-6,7-difluorobenzo[d]thiazol-2-amine] | – | – | 0.21 | 5.6 | 124 | – | – | –
CC(F)CNC1C[C@H]2CC[C@@H]1N2c1nc(OC[C@@]23CCCN2C[C@H](F)C3)nc2c(F)c(-c3ccc(F)c4sc(N)nc34)c(C(F)(F)F)cc12 (stereo partly drawn) [Example E86, 7-fluoro-4-(8-fluoro-4-((1S,4R)-2-((2-fluoropropyl)amino)-7-azabicyclo[2.2.1]heptan-7-yl)-2-(((2R,7aS)-2-fluorotetrahydro-1H-pyrrolizin-7a(5H)-yl)methoxy)-6-(trifluoromethyl)quinazolin-7-yl)benzo[d]thiazol-2-amine] | – | – | 1.4 | 16 | 320 | – | – | –
Nc1nc2c(-c3c(OC(F)(F)F)cc4c(N5CC6CCC(C5)N6)nc(OC[C@@]56CCCN5C[C@H](F)C6)nc4c3F)ccc(F)c2s1 [Example E87, 4-(4-(3,8-diazabicyclo[3.2.1]octan-3-yl)-8-fluoro-2-(((2R,7aS)-2-fluorotetrahydro-1H-pyrrolizin-7a(5H)-yl)methoxy)-6-(trifluoromethoxy)quinazolin-7-yl)-7-fluorobenzo[d]thiazol-2-amine] | – | – | 0.24 | 25 | 112 | – | – | –
CN1C[C@H](F)CC1(C)COc1nc(N2CC3CCC(C2)N3)c2cc(Cl)c(-c3ccc(F)c4sc(N)nc34)c(F)c2n1 (stereo partly drawn) [Example E89, 4-(4-(3,8-diazabicyclo[3.2.1]octan-3-yl)-6-chloro-8-fluoro-2-(((4R)-4-fluoro-1,2-dimethylpyrrolidin-2-yl)methoxy)quinazolin-7-yl)-7-fluorobenzo[d]thiazol-2-amine] | – | – | 2.4 | 121 | 556 | – | – | –
